Test results reported in patent publication US6353120B2, “Process for the preparation of a paclitaxel C-4 methyl carbonate analog” (Bristol-Myers Squibb Company, priority 1999, dated 2002).

Assays:
[1] = system: HCT/pk human colon carcinoma xenograft (multidrug resistant tumor model); experiment: distal site tumor model, HCT/pk human colon carcinoma xenograft; assay type: in vivo
[2] = system: HOC79, a clinically derived Taxol unresponsive ovarian carcinoma xenograft; experiment: distal site tumor model, HOC79 ovarian carcinoma xenograft; assay type: in vivo
tubulin = tubulin polymerization assay; assay type: biochemical
[3] = system: M109 murine lung carcinoma; experiment: distal site tumor model, M109 murine lung carcinoma; assay type: in vivo
[4] = system: L2987 human lung carcinoma xenograft; experiment: distal site tumor model, L2987 human lung carcinoma xenograft; assay type: in vivo

C-4 methylcarbonate analog of paclitaxel [Compound I]
antitumor activity compared with paclitaxel [1]: superior to paclitaxel | antitumor activity compared with paclitaxel [2]: superior to paclitaxel | potency in tubulin polymerization relative to paclitaxel (tubulin): about twice as potent as paclitaxel | antitumor activity compared with paclitaxel [3]: superior to paclitaxel | antitumor activity compared with paclitaxel [4]: superior to paclitaxel
